{
  "source": "patent US8986667B2",
  "about": "“Cosmetic composition with skin tightening effect” (LVMH Recherche, priority 2001, dated 2015)",
  "test_system": "human skin",
  "assay": "Kinetics of penetration of caffeine through thawed human skin mounted on Franz cells",
  "format": "in vitro ADME",
  "conditions": "receptor liquid",
  "text": "This study is made, in vitro, on human skin, which is kept beforehand by freezing, with the aim of evaluating the influence of the mixture according to the invention on the penetration and the distribution of caffeine within the skin beds. The occlusive properties of a gel according to the invention lead the research of an eventual patch effect. This study is made in comparison with a Carbopol gel.\nThe principle of the study is based on the evaluation of the diffusion of an active principle through the thawed human skin which is mounted on Franz cells.\nThese cells are constituted of two glass elements which delimit an upper partition and a lower partition, and they have an exposed surface area of […]. The skin is placed between these two elements, stratum corneum to the top. The active principle deposited on the skin crosses it and is collected in the lower partition, dissolved in a solution which is known as the receptor solution and which is constituted of a phosphate buffer+Na nitride (0.1%) mixture. […]\nThe kinetics of penetration, in μg/cm^2 per unit time, is expressed as a function of the interval of confidence, the IC95%, wherein the residual standard deviation is calculated by the ANOVA method over the whole of the tests. […]",
  "data": [
    {"smiles": "Cn1c(=O)c2c(ncn2C)n(C)c1=O", "note": "[caffeine]", "values": [
      {"measurement": "maximum concentration of caffeine collected during the study", "result": "less than 23 μg/mL"}
    ]}
  ]
}
